Our source for the IC50 values is patent US20170334899A1, “AMINO-SUBSTITUTED ISOTHIAZOLES” (Bayer Pharma Aktiengesellschaft, priority 2014, published 2017).

Assay [1] has as its system human cervical tumor cell line HeLa (ATCC CCL-2). The assay is described as follows: SAC-Formation - Paclitaxel-Induced Assay. It is filed as cell-based. To be noted: 24 h, HeLa cells, paclitaxel 0.05 μM, test range 0.005 μM-20 μM, read-out: IC50 [mol/l] SAC-Formation - Paclitaxel-Induced Assay. The gist of the method:
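Read-out is high-content imaging of anti-phospho-H3 Ser10 (mitosis) and Hoechst 33342 (DNA, cell number), with decreased mitotic fraction marking checkpoint breakthrough. Compounds (0.005–20 μM) and 0.05 μM paclitaxel co-added to overnight-plated HeLa for 24 h at 37° C; four-parameter Hill fit.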

Another assay deals with T1, CDK2/CycE (Homo sapiens, UniProt P24941).
T1 construct: GST; purchased ProQinase GmbH (Freiburg, Germany); host or cells: insect cells (Sf9)
Put plainly: CDK2/CycE kinase assay (TR-FRET). Conditions: avg, read-out: CDK2 avg (IC50 [mol/l]). It is filed as biochemical. The gist of the method:
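Read-out is a TR-FRET 665/620 nm emission ratio from EDTA-stopped reactions detected with anti-pRB(pSer807/pSer811), Eu-labelled anti-mouse IgG and streptavidin-XL665, scaled between no-enzyme and uninhibited wells. Reaction: Sf9-expressed GST-CDK2/GST-CycE, 15 min compound preincubation, 10 μM ATP, 0.75 μM biotin-peptide, 25 min, 22° C., pH 8.0 Tris buffer.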

Read-outs that look alike come from different tables or passages of the source. Bounds are passed on as bounds.

In the case of `Cc1nsc(Nc2ccc(C#N)cn2)c1C(=O)Nc1ccc(OC2CCCN(CC(F)F)C2)nc1` (stereo not shown) [Example 39, 5-[(5-Cyanopyridin-2-yl)amino]-N-(6-{[1-(2,2-difluoroethyl)piperidin-3-yl]oxy}-pyridin-3-yl)-3-methyl-1,2-thiazole-4-carboxamide], the IC50 in assay [1] (Homo sapiens, HeLa) was 24 nM; at CDK2/CycE, ≥ 20000 nM.

Take `Cc1nsc(Nc2cnc3ccccc3n2)c1C(=O)Nc1cccc(C(=O)NC(C)(C)C)c1` [Example 53, N-[3-(tert-Butylcarbamoyl)-phenyl]-3-methyl-5-(quinoxalin-2-ylamino)-1,2-thiazole-4-carboxamide]: the IC50 in assay [1] (Homo sapiens, HeLa) was 1100 nM; at CDK2/CycE it was ≥ 20000 nM.

For `Cc1nsc(Nc2cnc(C(F)(F)F)cn2)c1C(=O)Nc1ccc(F)c(OC[C@@H]2CCN(CC(F)F)C2)c1` [Example 403, N-(3-{[(3R)-1-(2,2-difluoroethyl)pyrrolidin-3-yl]methoxy}-4-fluorophenyl)-3-methyl-5-{[5-(trifluoromethyl)pyrazin-2-yl]amino}-1,2-thiazole-4-carboxamide], the IC50 in assay [1] was 42 nM; in assay [1] (Homo sapiens, HeLa), 27 nM; at CDK2/CycE, > 20000 nM.

Take `Cc1nsc(Nc2cc(C#N)ccn2)c1C(=O)Nc1ccc(OCCCNC(=O)OC(C)(C)C)nc1` [Example 43, tert-Butyl [3-({5-[({5-[(4-cyanopyridin-2-yl)amino]-3-methyl-1,2-thiazol-4-yl}-carbonyl)amino]pyridin-2-yl}oxy)propyl]carbamate]: the IC50 in assay [1] (Homo sapiens, HeLa) is 300 nM; on CDK2/CycE it was ≥ 20000 nM.

Turning to `COC(=O)c1cccc(NC(=O)c2c(C)nsc2Nc2cnc3ccccc3n2)c1` [Example 50, Methyl 3-({[3-methyl-5-(quinoxalin-2-ylamino)-1,2-thiazol-4-yl]carbonyl}amino)-benzoate], the IC50 is 620 nM in assay [1] (Homo sapiens, HeLa) and ≥ 20000 nM on CDK2/CycE.

In the case of `CCN1CCC(Oc2ccc(NC(=O)c3c(C)nsc3Nc3cnc(C(F)(F)F)cn3)cn2)C(F)(F)C1` (stereo not shown) [Example 406, N-{6-[(1-Ethyl-3,3-difluoropiperidin-4-yl)oxy]pyridin-3-yl}-3-methyl-5-{[5-(trifluoromethyl)pyrazin-2-yl]amino}-1,2-thiazole-4-carboxamide], the IC50 in assay [1] (Homo sapiens, HeLa) was 49 nM; at CDK2/CycE, > 20000 nM.

As for `Cc1nsc(Nc2ccc(C#N)cn2)c1C(=O)Nc1ccc(OC2CCCN(C(=O)OC(C)(C)C)C2)nc1` (stereo not shown) [Example 36, tert-Butyl 3-({5-[({5-[(5-cyanopyridin-2-yl)amino]-3-methyl-1,2-thiazol-4-yl}-carbonyl)amino]pyridin-2-yl}oxy)piperidine-1-carboxylate], the IC50 in assay [1] (Homo sapiens, HeLa) was 590 nM; at CDK2/CycE, ≥ 20000 nM.

As for `Cc1nsc(Nc2cnc3ccccc3n2)c1C(=O)Nc1cccc(C(=O)O)c1` [Example 51, 3-({[3-Methyl-5-(quinoxalin-2-ylamino)-1,2-thiazol-4-yl]carbonyl}amino)benzoic acid], the IC50 in assay [1] (Homo sapiens, HeLa) is 20000 nM; on CDK2/CycE it was ≥ 20000 nM.

On to `Cc1nsc(Nc2cc(C#N)ccn2)c1C(=O)Nc1ccc(OCCCNCC(F)F)nc1` [Example 45, 5-[(4-Cyanopyridin-2-yl)amino]-N-(6-{3-[(2,2-difluoroethyl)amino]propoxy}pyridin-3-yl)-3-methyl-1,2-thiazole-4-carboxamide], for which the IC50 in assay [1] (Homo sapiens, HeLa) was 20000 nM; at CDK2/CycE it was ≥ 20000 nM.

On to `Cc1nsc(Nc2cnc(C(F)(F)F)cn2)c1C(=O)Nc1ccc(F)c(OC[C@H]2CCCN(CC(F)(F)F)C2)c1` [Example 419, N-(4-Fluoro-3-{[(3S)-1-(2,2,2-trifluoroethyl)piperidin-3-yl]methoxy}phenyl)-3-methyl-5-{[5-(trifluoromethyl)pyrazin-2-yl]amino}-1,2-thiazole-4-carboxamide], for which the IC50 in assay [1] (Homo sapiens, HeLa) was 130 nM; on CDK2/CycE, > 20000 nM.

As to `Cc1nsc(Nc2cc(C#N)ccn2)c1C(=O)Nc1ccc(OCCCN)nc1` [Example 44, N-[6-(3-Aminopropoxy)pyridin-3-yl]-5-[(4-cyanopyridin-2-yl)amino]-3-methyl-1,2-thiazole-4-carboxamide], the IC50 was 20000 nM in assay [1] (Homo sapiens, HeLa) and ≥ 20000 nM at CDK2/CycE.

For `Cc1nsc(Nc2cnc(C(F)(F)F)cn2)c1C(=O)Nc1ccc(F)c(O[C@@H]2CCN(CC(F)(F)F)C2)c1` [Example 413, N-(4-Fluoro-3-{[(3R)-1-(2,2,2-trifluoroethyl)pyrrolidin-3-yl]oxy}phenyl)-3-methyl-5-{[5-(trifluoromethyl)pyrazin-2-yl]amino}-1,2-thiazole-4-carboxamide], the IC50 in assay [1] (Homo sapiens, HeLa) is 42 nM; on CDK2/CycE it was > 20000 nM.

`CCCN1C[C@H](F)[C@H](Oc2ccc(NC(=O)c3c(C)nsc3Nc3cnc(C(F)(F)F)cn3)cn2)C1` [Example 408, N-(6-{[(3R,4S)-4-Fluoro-1-propylpyrrolidin-3-yl]oxy}pyridin-3-yl)-3-methyl-5-{[5-(trifluoromethyl)pyrazin-2-yl]amino}-1,2-thiazole-4-carboxamide]: the IC50 in assay [1] (Homo sapiens, HeLa) was 47 nM; on CDK2/CycE it was > 20000 nM.

As to `Cc1nsc(Nc2cnccn2)c1C(=O)Nc1ccc(OC2CCCN(C(=O)OC(C)(C)C)C2)nc1` (stereo not shown) [Example 41, tert-Butyl 3-{[5-({[3-methyl-5-(pyrazin-2-ylamino)-1,2-thiazol-4-yl]carbonyl}amino)-pyridin-2-yl]oxy}piperidine-1-carboxylate], the IC50 in assay [1] (Homo sapiens, HeLa) is 1800 nM; at CDK2/CycE, ≥ 20000 nM.

As for `Cc1nsc(Nc2cnc3ccccc3n2)c1C(=O)Nc1cccc(C(=O)NCC(=O)OC(C)(C)C)c1` [Example 54, tert-Butyl N-[3-({[3-methyl-5-(quinoxalin-2-ylamino)-1,2-thiazol-4-yl]carbonyl}amino)-benzoyl]glycinate], the IC50 in assay [1] (Homo sapiens, HeLa) is 1300 nM; on CDK2/CycE it was ≥ 20000 nM.
